Read-outs that look alike come from different tables or passages of the source. No end group written: not given here.
Columns and labels:
C. albicans 14936 [1] = assay: microbe, parasite or virus in culture; conditions: Candida albicans, 14936, 48 h
C. albicans sp3931 [2] = assay: microbe, parasite or virus in culture; conditions: Candida albicans, SP3931, 48 h
[3] = test system: C. parapsilosis cgmcc 2.3989; assay: Antifungal activity assay (broth microdilution, MIC/MFC); format: cell-based, Candida parapsilosis; conditions: for MFC: 50 μl of MIC wells plated on YPD agar, 28°C, lowest concentration that completely killed fungal cells, consensus of at least three independent experiments
C. albicans sp3876 [4] = assay: microbe, parasite or virus in culture; conditions: Candida albicans, SP3876, 48 h
[5] = test system: C. tropicalis cgmcc 2.1975; assay: Antifungal activity assay (broth microdilution, MIC/MFC); format: cell-based, Candida tropicalis; conditions: for MFC: 50 μl of MIC wells plated on YPD agar, 28°C, lowest concentration that completely killed fungal cells, consensus of at least three independent experiments
C. albicans 17546 [6] = assay: microbe, parasite or virus in culture; conditions: Candida albicans, 17546, 48 h
C. albicans 58288 [7] = assay: microbe, parasite or virus in culture; conditions: Candida albicans, 58288, 48 h
C. albicans 56452 [8] = assay: microbe, parasite or virus in culture; conditions: Candida albicans, 56452, 48 h
C. albicans sp3902 [9] = assay: microbe, parasite or virus in culture; conditions: Candida albicans, SP3902, 48 h
C. albicans cgmcc 2.2086 = assay: Antifungal activity assay (broth microdilution, MIC/MFC); format: cell-based, Candida albicans; conditions: for MFC: 50 μl of MIC wells plated on YPD agar, 28°C, lowest concentration that completely killed fungal cells, consensus of at least three independent experiments
C. albicans sp3903 [10] = assay: microbe, parasite or virus in culture; conditions: Candida albicans, SP3903, 48 h
C. albicans 56214 [11] = assay: microbe, parasite or virus in culture; conditions: Candida albicans, 56214, 48 h
C. albicans sp3876 [12] = conditions: sp3876, 48 h; for MIC: pH 7
C. albicans 17546 [13] = conditions: 17546, 48 h; for MIC: pH 7
C. albicans 56214 [14] = conditions: 56214, 48 h; for MIC: pH 7
C. albicans sp3903 [15] = conditions: sp3903, 48 h; for MIC: pH 7
IPEC-J2 and PMEC cells [16] = assay: Cytotoxicity MTT assay, statements for both cell lines; conditions: 24 h, 1-64 μM
C. albicans 56452 [17] = conditions: 56452, 48 h; for MIC: pH 7
C. albicans 58288 [18] = conditions: 58288, 48 h; for MIC: pH 7
C. albicans sp3931 [19] = conditions: sp3931, 48 h; for MIC: pH 7
C. albicans sp3902 [20] = conditions: sp3902, 48 h; for MIC: pH 7
C. albicans 14936 [21] = conditions: 14936, 48 h; for MIC: pH 7
IPEC-J2 and PMEC cells [22] = test system: IPEC-J2 and PMEC cells

C[C@@H]1[C@H](O)[C@@H](C)/C=C/C=C/C=C/C=C/C=C/C=C/C=C/[C@H](O[C@@H]2O[C@H](C)[C@@H](O)[C@H](N)[C@@H]2O)C[C@@H]2O[C@](O)(C[C@@H](O)C[C@@H](O)[C@H](O)CC[C@@H](O)C[C@@H](O)CC(=O)O[C@H]1C)C[C@H](O)[C@H]2C(=O)O [AmB, amphotericin B]
2 µM: MFC ([3]; Lodderomyces parapsilosis, CGMCC2, 48 h) | MIC ([3]; Lodderomyces parapsilosis, CGMCC2, broth microdilution, RPMI-MOPS pH 7.0, 28°C, 48 h, lowest concentration inhibiting 99% of growth (A492)) | MFC ([5]; Candida tropicalis, CGMCC2, 48 h) | MFC (C. albicans 56452 [8]) | MFC (C. albicans 56214 [11])
0.13 µM: MIC (C. albicans sp3903 [10]; pH 7)
1 µM: MFC (C. albicans sp3931 [2]) | MIC ([5]; Candida tropicalis, CGMCC2, broth microdilution, RPMI-MOPS pH 7.0, 28°C, 48 h, lowest concentration inhibiting 99% of growth (A492)) | MFC (C. albicans 17546 [6]) | MFC (C. albicans 58288 [7]) | MIC (C. albicans 56452 [8]; pH 7) | MFC (C. albicans sp3902 [9]) | MFC (C. albicans cgmcc 2.2086; Candida albicans, CGMCC2, 48 h) | MIC (C. albicans cgmcc 2.2086; Candida albicans, CGMCC2, broth microdilution, RPMI-MOPS pH 7.0, 28°C, 48 h, lowest concentration inhibiting 99% of growth (A492)) | MFC (C. albicans sp3903 [10]) | MIC (C. albicans 56214 [11]; pH 7)
0.25 µM: MIC (C. albicans 14936 [1]; pH 7) | MIC (C. albicans sp3931 [2]; pH 7) | MIC (C. albicans sp3876 [4]; pH 7) | MIC (C. albicans 17546 [6]; pH 7) | MIC (C. albicans sp3902 [9]; pH 7)
0.5 µM: MFC (C. albicans 14936 [1]) | MFC (C. albicans sp3876 [4]) | MIC (C. albicans 58288 [7]; pH 7)

RIGRVLLVRGIRRIGRVL-NH2 [RV3]
16 µM: MIC ([3]; cgmcc 2.3989, 48 h, pH 7) | MFC ([5]; 48 h) | MIC (C. albicans 56214 [14]) | MFC (C. albicans 56452 [17]) | MIC (C. albicans 56452 [17])
8 µM: MIC ([5]; cgmcc 2.1975, 48 h, pH 7)
> 64 µM: IC50 (PMEC cells; PMEC cells, MTT, 24 h treatment, 1-64 μM, probit regression) | IC50 (IPEC-J2 cells; IPEC-J2 cells, MTT, 24 h treatment, 1-64 μM, probit regression)
negligible cytotoxic effects: cytotoxic effects (in words) (IPEC-J2 and PMEC cells [16])
>64 µM: HC10 (human erythrocytes; red cells of human, 1 h)
64 µM: MFC (C. albicans 17546 [13]) | MIC (C. albicans 17546 [13])
32 µM: MFC (C. albicans sp3876 [12]) | MIC (C. albicans sp3876 [12]) | MFC ([3]; 48 h) | MFC (C. albicans 56214 [14]) | MFC (C. albicans sp3903 [15]) | MIC (C. albicans sp3903 [15]) | MFC (C. albicans 58288 [18]) | MIC (C. albicans 58288 [18]) | MFC (C. albicans sp3931 [19]) | MIC (C. albicans sp3931 [19]) | MFC (C. albicans cgmcc 2.2086; 48 h) | MIC (C. albicans cgmcc 2.2086; cgmcc 2.2086, 48 h, pH 7) | MFC (C. albicans sp3902 [20]) | MIC (C. albicans sp3902 [20]) | MFC (C. albicans 14936 [21]) | MIC (C. albicans 14936 [21])

RIGRFLLFRGIRRIGRFL-NH2 [RF3]
8 µM: MIC (C. albicans 17546 [13]) | MFC ([5]; 48 h) | MIC ([5]; cgmcc 2.1975, 48 h, pH 7) | MFC (C. albicans 56214 [14]) | MFC (C. albicans sp3903 [15]) | MIC (C. albicans sp3903 [15]) | MFC (C. albicans 56452 [17]) | MIC (C. albicans 56452 [17]) | MFC (C. albicans 58288 [18]) | MIC (C. albicans 58288 [18]) | MFC (C. albicans sp3931 [19]) | MIC (C. albicans sp3931 [19]) | MFC (C. albicans cgmcc 2.2086; 48 h) | MIC (C. albicans cgmcc 2.2086; cgmcc 2.2086, 48 h, pH 7) | MFC (C. albicans sp3902 [20]) | MIC (C. albicans sp3902 [20]) | MFC (C. albicans 14936 [21]) | MIC (C. albicans 14936 [21])
sharp rise in cytotoxicity: cytotoxicity at 64 μM (in words) (IPEC-J2 and PMEC cells [22])
> 64 µM: HC10 (human erythrocytes)
4 µM: MFC (C. albicans sp3876 [12]) | MIC (C. albicans sp3876 [12]) | MIC (C. albicans 56214 [14])
54 µM: IC50 (PMEC cells; 24 h)
16 µM: MFC ([3]; 48 h) | MIC ([3]; cgmcc 2.3989, 48 h, pH 7) | MFC (C. albicans 17546 [13])
59.8 µM: IC50 (IPEC-J2 cells; 24 h)

— article PMC7554340, “A Novel Dual-Targeted α-Helical Peptide With Potent Antifungal Activity Against Fluconazole-Resistant Candida albicans Clinical Isolates” (Frontiers in Microbiology, 2020)
